Test results as given in patent US20020128214A1, “C-glucosyl ether lipids” (priority 2000, published 2002).

Key:
MCF-7 (breast) = test: Anti-proliferation, cell count after 48 h (Coulter Counter), MCF-7; assay type: cell-based; conditions: treated 48 hours, extrapolated from FIGS. 1-9
Description: (§1) In this study, the anti-proliferative effects of each of four glucosyl ether lipid compounds were assessed on a panel of epithelial cancer cell lines. Two Cglucosyl ether lipids in accordance with the invention (compounds 4 and 17) were evaluated. In addition, a 2′-deoxy C-glucosyl ether lipid (compound 2) and a 2′-amino-2′-deoxy O-glucosyl ether lipid (compound 3), were evaluated. Thirty mM stock concentration of each of the four compounds were prepared in ethanol.
(§2) The experimental procedure used is detailed in Lu, X. and Arthur, G., Cancer Res., 52:2806-2812 (1992), the pertinent parts of which are incorporated by reference. Briefly, the epithelial cancer cell lines, namely SK-N-MC and SK-N-SH (neuroblastoma); DU145 (prostate); A498 (kidney); MDA-MB-468, MDA-MB-231, HS578t, MCF-7 and BT549 (breast), were subcultured into 24-well plates and allowed to grow to exponential phase. The medium was changed and replaced with one containing the glucosyl ether lipid compounds ([…]) in 10% FBS-supplemented medium. The cell numbers in representative wells were determined at the time of addition of the compounds. After 48 hours, the cells were detached with trypsin and the numbers were determined with a Coulter Counter. The increase in cell numbers were expressed as a percentage relative to those in wells without any drug (control).
(§3) See Erukulla, et al., J. Med. Chem., 39:1545-1548 (1996), the pertinent portions of which are incorporated herein by reference. Table 1 summarizes the comparative test results for 17, 3, 4, and the 2-deoxy analog of 4, (3S)-3-O-methyl-4-O-hexadecyl-2′-deoxy-β-D-glucopyranosylbutane (compound 2), which had been described in our earlier paper (Yang et al., Org. Lett., 1:2149-2151 (1999)). The method utilized was the same as that described in Example 2 above, and the Gl50 values were extrapolated from the results shown in FIGS. 1-9. In all nine examples, the close similarity in antiproliferative activity is striking.

MDA-MB-468 (breast) = test: Anti-proliferation, cell count after 48 h (Coulter Counter), MDA-MB-468; assay type: cell-based; conditions: treated 48 hours, extrapolated from FIGS. 1-9
Description: as §1, §2, §3

HS578T (breast) = test: Anti-proliferation, cell count after 48 h (Coulter Counter), HS578T; assay type: cell-based; conditions: treated 48 hours, extrapolated from FIGS. 1-9
Description: as §1, §2, §3

[1] = system: panel of epithelial cancer cell lines; test: Cancer cell proliferation study, whole panel (FIGS. 1-9); assay type: cell-based; conditions: nine cancer cell lines, 48 hours, 10% FBS-supplemented medium
Description: as §1, §2

MDA-MB-231 (breast) = test: Anti-proliferation, cell count after 48 h (Coulter Counter), MDA-MB-231; assay type: cell-based; conditions: treated 48 hours, extrapolated from FIGS. 1-9
Description: as §1, §2, §3

[2] = comparison with compound 1; cited from earlier work
SK-N-SH (neuroblastoma) = test: Anti-proliferation, cell count after 48 h (Coulter Counter), SK-N-SH; assay type: cell-based; conditions: neuronal, treated 48 hours, extrapolated from FIGS. 1-9
Description: as §1, §2, §3

BT549 (breast) = test: Anti-proliferation, cell count after 48 h (Coulter Counter), BT549; assay type: cell-based; conditions: treated 48 hours, extrapolated from FIGS. 1-9
Description: as §1, §2, §3

A498 (kidney) = test: Anti-proliferation, cell count after 48 h (Coulter Counter), A498; assay type: cell-based; conditions: treated 48 hours, extrapolated from FIGS. 1-9
Description: as §1, §2, §3

SK-N-MC (neuroblastoma) = test: Anti-proliferation, cell count after 48 h (Coulter Counter), SK-N-MC; assay type: cell-based; conditions: neuronal, treated 48 hours, extrapolated from FIGS. 1-9
Description: as §1, §2, §3

DU145 (prostate) = test: Anti-proliferation, cell count after 48 h (Coulter Counter), DU145; assay type: cell-based; conditions: treated 48 hours, extrapolated from FIGS. 1-9
Description: as §1, §2, §3

Storage stability = assay type: physicochemical; conditions: stored at 0° C.
Description: Deprotection and reduction of alkene 15 using H2 and 10% Pd/C afforded β-C-glycoside 16 in 85% yield. Of the several methods attempted for cleavage of the silyl group (e.g., Bu4NF, formic acid, acidic ionic exchange resin, and BF3, Et2O conditions), only BF3,Et2O in CH3CN gave a clean reaction (see King, et al., Tetrahedron Lett., 36:4563 (1995), the pertinent portions of which are incorporated herein by reference). The N-acetyl group was cleaved by using 2 N KOH/EtOH at reflux at 120° C. to afford the final product 4. [drawing 8]

SMILES	GI50 (MCF-7 (breast))	GI50 (MDA-MB-468 (breast))	GI50 (HS578T (breast))	anti-proliferative efficacy (increase in cell numbers relative to control) [1]	GI50 (MDA-MB-231 (breast))	antiproliferative activity of C-glycoside relative to O-glycoside compound 1 [2]	GI50 (SK-N-SH (neuroblastoma))	GI50 (BT549 (breast))	GI50 (A498 (kidney))	GI50 (SK-N-MC (neuroblastoma))	GI50 (DU145 (prostate))	storage time without decomposition (Storage stability)
CCCCCCCCCCCCCCCCOC[C@H](CC[C@H]1C[C@@H](O)[C@H](O)[C@@H](CO)O1)OC [Compound 2, (3S)-3-O-methyl-4-O-hexadecyl-2′-deoxy-β-D-glucopyranosylbutane, reference compound]	> 15 µM	11.4 µM	> 15 µM	generally less efficacious than the other two glycoside ether lipids evaluated	> 15 µM	several fold weaker activity	> 15 µM	> 15 µM	> 15 µM	> 15 µM	> 15 µM	–
CCCCCCCCCCCCCCCCOC[C@H](CC[C@@H]1O[C@H](CO)[C@@H](O)[C@H](O)[C@H]1NC(C)=O)OC [Compound 17, (3S)-3-O-Methyl-4-O-hexadecyl 2′-acetamido-2′-deoxy-β-D-glucopyranosylbutane]	25 µM	34.4 µM	21 µM	generally less efficacious than the other two glycoside ether lipids evaluated	40 µM	–	> 15 µM	28.5 µM	> 15 µM	> 15 µM	> 15 µM	–
CCCCCCCCCCCCCCCCOC[C@H](CC[C@@H]1O[C@H](CO)[C@@H](O)[C@H](O)[C@H]1N)OC [Compound 4, (3S)-3-O-methyl-4-O-hexadecyl-2′-amino-2′-deoxy-β-Dlucopyranosylbutane]	8.1 µM	9 µM	5.1 µM	–	9.1 µM	–	4.1 µM	8.9 µM	8.5 µM	4.1 µM	7.9 µM	more than one month without any decomposition
